Results taken from US8846698B2, “Pyrrolo[2,3-d]pyrimidine tropomysin-related kinase inhibitors” (Pfizer Limited, priority 2011, dated 2014).

Target: TRKA (Homo sapiens (Human), UniProt P04629)
Assay: Isolated TRK enzyme assay (HTRF KinEASE-TK), TRKA
Assay type: biochemical
Settings: read-out: Trka enzyme (IC50)

Sequence of TRKA (P04629 441-796): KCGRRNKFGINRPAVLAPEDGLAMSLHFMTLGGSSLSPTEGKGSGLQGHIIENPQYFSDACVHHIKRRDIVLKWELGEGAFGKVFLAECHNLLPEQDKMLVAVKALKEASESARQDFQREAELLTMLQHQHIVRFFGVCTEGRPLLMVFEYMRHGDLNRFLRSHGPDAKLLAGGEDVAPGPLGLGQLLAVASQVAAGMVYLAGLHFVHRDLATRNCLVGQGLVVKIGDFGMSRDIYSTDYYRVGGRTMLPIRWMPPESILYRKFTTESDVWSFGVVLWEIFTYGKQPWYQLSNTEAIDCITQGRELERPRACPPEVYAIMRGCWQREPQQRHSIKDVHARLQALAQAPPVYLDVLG

| Structure (SMILES) | IC50 [nM] |
| --- | --- |
| CC(C)n1cc(C(=O)c2cncc(NC(=O)C(O)c3ccccc3)c2)c2cncnc21 (stereo not shown) [Example 518, 2-Hydroxy-N-[5-(7-isopropyl-7H-pyrrolo[2,3-d]pyrimidine-5-carbonyl)-pyridin-3-yl]-2-phenyl-acetamide] | 7.3 |
| CCOc1ncc(C(=O)c2cn(C(C)C)c3ncncc23)cc1NC(=O)Cn1nc(C(F)(F)F)cc1C [Example 519, N-[2-Ethoxy-5-(7-isopropyl-7H-pyrrolo[2,3-d]pyrimidine-5-carbonyl)-pyridin-3-yl]-2-(5-methyl-3-trifluoromethyl-pyrazol-1-yl)-acetamide] | 47.9 |
| CC(C)(C)n1cc(C(=O)c2cncc(NC(=O)Cc3ccc(C#N)cc3)c2)c2cnc(N)nc21 [Example 520, N-[5-(2-Amino-7-tert-butyl-7H-pyrrolo[2,3-d]pyrimidine-5-carbonyl)-pyridin-3-yl]-2-(4-cyano-phenyl)-acetamide] | 4.57 |
| CC(C)n1cc(C(=O)c2cncc(NC(=O)Nc3cc(C4CC4)nn3-c3cnn(C)c3)c2)c2cncnc21 [Example 526, 1-(3-Cyclopropyl-1′-methyl-1′H-[1,4′]bipyrazolyl-5-yl)-3-[5-(7-isopropyl-7H-pyrrolo[2,3-d]pyrimidine-5-carbonyl)-pyridin-3-yl]-urea] | 1.51 |
| CC(C)n1cc(C(=O)c2cncc(NC(=O)Nc3cc(C(C)(C)C)nn3-c3cnn(C)c3)c2)c2cncnc21 [Example 527, 1-(3-tert-Butyl-1′-methyl-1′H-[1,4′]bipyrazolyl-5-yl)-3-[5-(7-isopropyl-7H-pyrrolo[2,3-d]pyrimidine-5-carbonyl)-pyridin-3-yl]-urea] | 4.64 |
| CC(C)(C)n1cc(C(=O)c2cncc(NC(=O)Cc3nc4ccccc4[nH]3)c2)c2cnc(N)nc21 [Example 528, N-[5-(2-Amino-7-tert-butyl-7H-pyrrolo[2,3-d]pyrimidine-5-carbonyl)-pyridin-3-yl]-2-(1H-benzoimidazol-2-yl)-acetamide] | 2.25 |
| C[C@@H](CO)n1cc(C(=O)c2cncc(NC(=O)Cc3ccc(OC(F)(F)F)cc3)c2)c2cncnc21 [Example 534, N-{5-[7-((S)-2-Hydroxy-1-methyl-ethyl)-7H-pyrrolo[2,3-d]pyrimidine-5-carbonyl]-pyridin-3-yl}-2-(4-trifluoromethoxy-phenyl)-acetamide] | 20.3 |
| COCC(C)(C)n1cc(C(=O)c2cncc(NC(=O)Cn3ccc(C4CC4)n3)c2)c2cncnc21 [Example 538, 2-(3-Cyclopropyl-pyrazol-1-yl)-N-{5-[7-(2-methoxy-1,1-dimethyl-ethyl)-7H-pyrrolo[2,3-d]pyrimidine-5-carbonyl]-pyridin-3-yl}-acetamide] | 1.51 |
| COCC(C)(C)n1cc(C(=O)c2cncc(NC(=O)Cc3ccc(F)cc3)c2)c2cncnc21 [Example 539, 2-(4-Fluoro-phenyl)-N-{5-[7-(2-methoxy-1,1-dimethyl-ethyl)-7H-pyrrolo[2,3-d]pyrimidine-5-carbonyl]-pyridin-3-yl}-acetamide] | 4.08 |

Continued, values first:

| IC50 [nM] | Structure (SMILES) |
| --- | --- |
| 92.7 | CC(C)n1cc(C(=O)c2cncc(NC(=O)C(CO)c3ccc(Cl)cc3)c2)c2cncnc21 (stereo not shown) [Example 521, 2-(4-Chloro-phenyl)-3-hydroxy-N-[5-(7-isopropyl-7H-pyrrolo[2,3-d]pyrimidine-5-carbonyl)-pyridin-3-yl]-propionamide] |
| 43.7 | N#Cc1ccc(CC(=O)Nc2cncc(C(=O)c3cn(C4(CO)CC4)c4ncncc34)c2)cc1 [Example 522, 2-(4-Cyano-phenyl)-N-{5-[7-(1-hydroxymethyl-cyclopropyl)-7H-pyrrolo[2,3-d]pyrimidine-5-carbonyl]-pyridin-3-yl}-acetamide] |
| 11.4 | O=C(Cc1ccc(Cl)cn1)Nc1cncc(C(=O)c2cn(C3(CO)CC3)c3ncncc23)c1 [Example 523, 2-(5-Chloro-pyridin-2-yl)-N-{5-[7-(1-hydroxymethyl-cyclopropyl)-7H-pyrrolo[2,3-d]pyrimidine-5-carbonyl]-pyridin-3-yl}-acetamide] |
| 4.53 | O=C(Cc1ccc(C(F)(F)F)cc1)Nc1cncc(C(=O)c2cn(C3(CO)CC3)c3ncncc23)c1 [Example 524, N-{5-[7-(1-Hydroxymethyl-cyclopropyl)-7H-pyrrolo[2,3-d]pyrimidine-5-carbonyl]-pyridin-3-yl}-2-(4-trifluoromethyl-phenyl)-acetamide] |
| 9.48 | O=C(Cn1ccc(C(F)(F)F)n1)Nc1cncc(C(=O)c2cn(C3(CO)CC3)c3ncncc23)c1 [Example 525, N-{5-[7-(1-Hydroxymethyl-cyclopropyl)-7H-pyrrolo[2,3-d]pyrimidine-5-carbonyl]-pyridin-3-yl}-2-(3-trifluoromethyl-pyrazol-1-yl)-acetamide] |
| 3.93 | CC(C)(C)n1cc(C(=O)c2cncc(NC(=O)Cc3ccc(Br)cn3)c2)c2cnc(N)nc21 [Example 529, N-[5-(2-Amino-7-tert-butyl-7H-pyrrolo[2,3-d]pyrimidine-5-carbonyl)-pyridin-3-yl]-2-(5-bromo-pyridin-2-yl)-acetamide] |
| 5.9 | CC(C)(C)n1cc(C(=O)c2cncc(NC(=O)Cc3ccc(C#N)cn3)c2)c2cnc(N)nc21 [Example 530, N-[5-(2-Amino-7-tert-butyl-7H-pyrrolo[2,3-d]pyrimidine-5-carbonyl)-pyridin-3-yl]-2-(5-cyano-pyridin-2-yl)-acetamide] |
| 52.4 | C[C@@H](CO)n1cc(C(=O)c2cncc(NC(=O)Cc3ccc(OC(F)F)cc3)c2)c2cncnc21 [Example 531, 2-(4-Difluoromethoxy-phenyl)-N-{5-[7-((S)-2-hydroxy-1-methyl-ethyl)-7H-pyrrolo[2,3-d]pyrimidine-5-carbonyl]-pyridin-3-yl}-acetamide] |
| 11.1 | C[C@@H](CO)n1cc(C(=O)c2cncc(NC(=O)Cn3cc4ccccc4n3)c2)c2cncnc21 [Example 532, N-{5-[7-((S)-2-Hydroxy-1-methyl-ethyl)-7H-pyrrolo[2,3-d]pyrimidine-5-carbonyl]-pyridin-3-yl}-2-indazol-2-yl-acetamide] |
| 31.3 | C[C@@H](CO)n1cc(C(=O)c2cncc(NC(=O)Cc3nc4ccccc4[nH]3)c2)c2cncnc21 [Example 533, 2-(1H-Benzoimidazol-2-yl)-N-{5-[7-((S)-2-hydroxy-1-methyl-ethyl)-7H-pyrrolo[2,3-d]pyrimidine-5-carbonyl]-pyridin-3-yl}-acetamide] |
| 51.2 | C[C@@H](CO)n1cc(C(=O)c2cncc(NC(=O)Cc3ccc(F)c(F)c3)c2)c2cncnc21 [Example 535, 2-(3,4-Difluoro-phenyl)-N-{5-[7-((S)-2-hydroxy-1-methyl-ethyl)-7H-pyrrolo[2,3-d]pyrimidine-5-carbonyl]-pyridin-3-yl}-acetamide] |
| 1.57 | COCC(C)(C)n1cc(C(=O)c2cncc(NC(=O)Cc3ccc(Cl)cn3)c2)c2cncnc21 [Example 536, 2-(5-Chloro-pyridin-2-yl)-N-{5-[7-(2-methoxy-1,1-dimethyl-ethyl)-7H-pyrrolo[2,3-d]pyrimidine-5-carbonyl]-pyridin-3-yl}-acetamide] |
| 10.6 | COCC(C)(C)n1cc(C(=O)c2cncc(NC(=O)Cc3ccc(F)cn3)c2)c2cncnc21 [Example 537, 2-(5-Fluoro-pyridin-2-yl)-N-{5-[7-(2-methoxy-1,1-dimethyl-ethyl)-7H-pyrrolo[2,3-d]pyrimidine-5-carbonyl]-pyridin-3-yl}-acetamide] |
